From PubChem BioAssay (NCI)
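All cell lines were grown in 96-well plates and treated with compound for 48 hours. TGI is the concentration that stops growth completely.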

Experiments:
Test in all cases: NCI tumour cell line growth inhibition, 48 h
PC-3 prostate = system: PC-3 prostate
NCI-H23 lung = system: NCI-H23 lung
MDA-MB-231 breast = system: MDA-MB-231 breast
DU-145 prostate = system: DU-145 prostate
SNB-19 CNS = system: SNB-19 CNS
K-562 leukemia = system: K-562 leukemia
HS 578T breast = system: HS 578T breast
SW-620 colon = system: SW-620 colon
SK-OV-3 ovarian = system: SK-OV-3 ovarian
A498 renal = system: A498 renal
CCRF-CEM leukemia = system: CCRF-CEM leukemia
UACC-62 melanoma = system: UACC-62 melanoma
TK-10 renal = system: TK-10 renal
M14 melanoma = system: M14 melanoma
EKVX NSCLC = system: EKVX NSCLC
786-0 renal = system: 786-0 renal
SK-MEL-5 melanoma = system: SK-MEL-5 melanoma
T-47D breast = system: T-47D breast
OVCAR-4 ovarian = system: OVCAR-4 ovarian
SF-268 CNS = system: SF-268 CNS
SNB-75 CNS = system: SNB-75 CNS
MOLT-4 leukemia = system: MOLT-4 leukemia
HOP-92 NSCLC = system: HOP-92 NSCLC
SK-MEL-28 melanoma = system: SK-MEL-28 melanoma
NCI/ADR-RES ovarian = system: NCI/ADR-RES ovarian
NCI-H522 lung = system: NCI-H522 lung
SK-MEL-2 melanoma = system: SK-MEL-2 melanoma
U251 CNS = system: U251 CNS
OVCAR-5 ovarian = system: OVCAR-5 ovarian
ACHN renal = system: ACHN renal
BT-549 breast = system: BT-549 breast
SR leukemia = system: SR leukemia
IGROV1 ovarian = system: IGROV1 ovarian
A549 NSCLC = system: A549 NSCLC
MDA-MB-435 = system: MDA-MB-435
LOX IMVI melanoma = system: LOX IMVI melanoma
RPMI-8226 leukemia = system: RPMI-8226 leukemia
UO-31 renal = system: UO-31 renal
MDA-N = system: MDA-N
MCF7 breast = system: MCF7 breast
KM12 colon = system: KM12 colon
HOP-62 NSCLC = system: HOP-62 NSCLC
HCT-15 colon = system: HCT-15 colon
HT29 colon = system: HT29 colon
COLO 205 colon = system: COLO 205 colon
HCT-116 colon = system: HCT-116 colon
HCC-2998 colon = system: HCC-2998 colon
OVCAR-8 ovarian = system: OVCAR-8 ovarian
UACC-257 melanoma = system: UACC-257 melanoma
CAKI-1 renal = system: CAKI-1 renal
SF-295 CNS = system: SF-295 CNS
SN12C renal = system: SN12C renal
NCI-H460 lung = system: NCI-H460 lung
NCI-H226 lung = system: NCI-H226 lung
OVCAR-3 ovarian = system: OVCAR-3 ovarian
RXF 393 renal = system: RXF 393 renal
MALME-3M melanoma = system: MALME-3M melanoma
HL-60(TB) leukemia = system: HL-60(TB) leukemia
SF-539 CNS = system: SF-539 CNS

O=c1oc2ccc([N+](=O)[O-])cc2nc1/C=C(\O)c1ccccc1
TGI (PC-3 prostate): > 100 µM | TGI (NCI-H23 lung): > 100 µM | TGI (MDA-MB-231 breast): > 100 µM | TGI (DU-145 prostate): > 100 µM | TGI (SNB-19 CNS): > 100 µM | TGI (K-562 leukemia): > 100 µM | TGI (HS 578T breast): > 100 µM | TGI (SW-620 colon): > 100 µM | TGI (SK-OV-3 ovarian): > 100 µM | TGI (A498 renal): > 100 µM | TGI (CCRF-CEM leukemia): > 100 µM | TGI (UACC-62 melanoma): > 100 µM | TGI (TK-10 renal): 93.4 µM | TGI (M14 melanoma): > 100 µM | TGI (EKVX NSCLC): > 100 µM | TGI (786-0 renal): > 100 µM | TGI (SK-MEL-5 melanoma): > 100 µM | TGI (T-47D breast): > 100 µM | TGI (OVCAR-4 ovarian): > 100 µM | TGI (SF-268 CNS): > 100 µM | TGI (SNB-75 CNS): > 100 µM | TGI (MOLT-4 leukemia): > 100 µM | TGI (HOP-92 NSCLC): > 100 µM | TGI (SK-MEL-28 melanoma): > 100 µM | TGI (NCI/ADR-RES ovarian): > 100 µM | TGI (NCI-H522 lung): > 100 µM | TGI (SK-MEL-2 melanoma): 98.2 µM | TGI (U251 CNS): > 100 µM | TGI (OVCAR-5 ovarian): > 100 µM | TGI (ACHN renal): > 100 µM | TGI (BT-549 breast): > 100 µM | TGI (SR leukemia): > 100 µM | TGI (IGROV1 ovarian): > 100 µM | TGI (A549 NSCLC): > 100 µM | TGI (MDA-MB-435): > 100 µM | TGI (LOX IMVI melanoma): > 100 µM | TGI (RPMI-8226 leukemia): > 100 µM | TGI (UO-31 renal): > 100 µM | TGI (MDA-N): > 100 µM | TGI (MCF7 breast): > 100 µM | TGI (KM12 colon): > 100 µM | TGI (HOP-62 NSCLC): > 100 µM | TGI (HCT-15 colon): > 100 µM | TGI (HT29 colon): > 100 µM | TGI (COLO 205 colon): > 100 µM | TGI (HCT-116 colon): > 100 µM | TGI (HCC-2998 colon): > 100 µM | TGI (OVCAR-8 ovarian): > 100 µM | TGI (UACC-257 melanoma): > 100 µM | TGI (CAKI-1 renal): > 100 µM | TGI (SF-295 CNS): > 100 µM | TGI (SN12C renal): > 100 µM | TGI (NCI-H460 lung): > 100 µM | TGI (NCI-H226 lung): > 100 µM | TGI (OVCAR-3 ovarian): > 100 µM | TGI (RXF 393 renal): > 100 µM | TGI (MALME-3M melanoma): > 100 µM | TGI (HL-60(TB) leukemia): > 100 µM

O=[N+]([O-])c1cc(Br)cc2cc(Cl)cnc12
TGI (PC-3 prostate): > 100 µM | TGI (NCI-H23 lung): > 100 µM | TGI (MDA-MB-231 breast): > 100 µM | TGI (DU-145 prostate): > 100 µM | TGI (SNB-19 CNS): > 100 µM | TGI (K-562 leukemia): > 100 µM | TGI (HS 578T breast): > 100 µM | TGI (SW-620 colon): 32.8 µM | TGI (SK-OV-3 ovarian): > 100 µM | TGI (A498 renal): > 100 µM | TGI (CCRF-CEM leukemia): > 100 µM | TGI (UACC-62 melanoma): > 100 µM | TGI (TK-10 renal): > 100 µM | TGI (M14 melanoma): > 100 µM | TGI (EKVX NSCLC): > 100 µM | TGI (786-0 renal): > 100 µM | TGI (SK-MEL-5 melanoma): > 100 µM | TGI (T-47D breast): > 100 µM | TGI (OVCAR-4 ovarian): > 100 µM | TGI (SF-268 CNS): > 100 µM | TGI (SNB-75 CNS): 92 µM | TGI (MOLT-4 leukemia): > 100 µM | TGI (HOP-92 NSCLC): 6.36 µM | TGI (SK-MEL-28 melanoma): > 100 µM | TGI (NCI/ADR-RES ovarian): > 100 µM | TGI (NCI-H522 lung): > 100 µM | TGI (U251 CNS): > 100 µM | TGI (OVCAR-5 ovarian): > 100 µM | TGI (ACHN renal): > 100 µM | TGI (BT-549 breast): > 100 µM | TGI (SR leukemia): > 100 µM | TGI (IGROV1 ovarian): 24.2 µM | TGI (A549 NSCLC): > 100 µM | TGI (MDA-MB-435): > 100 µM | TGI (LOX IMVI melanoma): > 100 µM | TGI (RPMI-8226 leukemia): > 100 µM | TGI (SF-539 CNS): > 100 µM | TGI (UO-31 renal): > 100 µM | TGI (MDA-N): > 100 µM | TGI (MCF7 breast): > 100 µM | TGI (KM12 colon): > 100 µM | TGI (HOP-62 NSCLC): > 100 µM | TGI (HCT-15 colon): > 100 µM | TGI (HT29 colon): > 100 µM | TGI (COLO 205 colon): > 100 µM | TGI (HCT-116 colon): > 100 µM | TGI (HCC-2998 colon): > 100 µM | TGI (OVCAR-8 ovarian): > 100 µM | TGI (UACC-257 melanoma): > 100 µM | TGI (CAKI-1 renal): > 100 µM | TGI (SF-295 CNS): > 100 µM | TGI (SN12C renal): > 100 µM | TGI (NCI-H460 lung): > 100 µM | TGI (NCI-H226 lung): > 100 µM | TGI (OVCAR-3 ovarian): > 100 µM | TGI (RXF 393 renal): > 100 µM | TGI (MALME-3M melanoma): > 100 µM | TGI (HL-60(TB) leukemia): > 100 µM
